Consider two molecules from patent US20080171718A1, “Methods and Compositions for Treating Cancer Using BCL-2 Antisense Oligomers, Tyrosine Kinase Inhibitors, and Chemotherapeutic Agents” (priority 2006, published 2008).

This experiment deals with A549 human lung cancer model. The experiment is described as follows: Tumor growth delay in A549 human lung cancer model in SCID mice. To be noted: for effect of the tyrosine kinase inhibitor in triplet therapy with Bcl-2 antisense and cytotoxic chemotherapeutic (comparison, interaction): A549 model, triplet with Genasense and Taxol/Abraxane. Format: in vivo. As to the method: Genasense® (G3139 by Genta, Bcl-2 inhibitor, also referred to in the Figures as “OBL”), Abraxane® (by Abraxis, paclitaxel), and Taxol® (by Bristol Myers Squibb, paclitaxel) were submitted for evaluation in combination with tyrosine kinase inhibitors against an A549 human lung cancer model in severe combined immune deficient (SCID) mice. Ten treatment groups having 10 mice per group were analyzed for tumor growth delay. G3139, Abraxane, and Taxol were administered via intravenous (IV) injection, and tyrosine kinase inhibitors were administered via oral gavage (PO).
The mice were injected with 100 μl tumor cells subcutaneously (SC). […] On the 15th day, treatment cycles of 5 days on and 2 days off began for a series of 3 cycles. During treatment, the mice were weighed twice daily. Tumor volume estimation (mm^3) was made in accordance with the formula (a^2×b/2), where “a” is the smallest diameter and “b” is the largest diameter. All procedures were completed in accordance with established animal care protocols.
Subconfluent cells were harvested by using 0.23% trypsin-EDTA (HyClone, Logan, Utah) and were counted using the trypan blue assay technique. Cells (99% viability) were re-suspended at the concentration of 10×10^6 cells/100 μl of sterile saline.
G3139 was prepared fresh each treatment day from a refrigerated stock solution of 30 mg/ml using sterile saline as the vehicle; while tyrosine kinase inhibitors in capsule form were brought up to the desired concentration using 10% DMSO and 90% sterile saline as the vehicle. Taxol (Infusion Solutions, Tucson, Az.) was prepared fresh each treatment day from a refrigerated stock solution of 6 mg/ml in Cremaphor EL/EtOH using sterile saline as the vehicle. Abraxane was prepared from a frozen stock of 5 mg/ml with the diluent of sterile saline. G3139 (20 mg/kg) was administered twice during each 5-day treatment cycle, on day 3 and on day 5. […] G3139 was administered at a volume of 0.1 ml using a 27 gauge needle (Becton Dickinson). Abraxane and Taxol were administered at a volume of 0.2 ml using a 27 gauge needle. […]

Entries after “also recorded” stand apart in the source; their conditions may differ.

As for `CNC(=O)c1cc(Oc2ccc(NC(=O)Nc3ccc(Cl)c(C(F)(F)F)c3)cc2)ccn1` [Nexavar, sorafenib], the “effect of the tyrosine kinase inhibitor in triplet therapy with Bcl-2 antisense and cytotoxic chemotherapeutic (comparison, interaction)” value is “comparable to Sutent in the triplet therapy and more effective than Gleevec; also recorded: unexpectedly enhanced interaction”. The “tumor growth / tumor growth inhibition compared to the negative control (tumor volume versus days post implantation)” value (FIG. 1-3, single agent, SC A549 tumors, 3 cycles of 5 days on/2 days off from day 15, Taxol/Abraxane 13.4 mg/kg IV day 1, Gleevec 100 mg/kg, Sutent/Nexavar 40 mg/kg PO daily) was “minor and substantially similar tumor growth inhibition”.

With `C#Cc1cccc(Nc2ncnc3cc(OCCOC)c(OCCOC)cc23)c1` [Tarceva, erlotinib], the “effect of the tyrosine kinase inhibitor in triplet therapy with Bcl-2 antisense and cytotoxic chemotherapeutic (comparison, interaction)” value was “does not significantly enhance the efficacy”.
